{
  "source": "patent US20170298051A1",
  "about": "“ACTIVATOR OF ADIPONECTIN RECEPTOR” (THE UNIVERSITY OF TOKYO, priority 2013, published 2017)",
  "key": {"AdipoR1": {"molecular_target": "T1, AdipoR1 (Mus musculus, UniProt Q91VH1)", "T1 construct": "C2C12 cells (ATCC; CRL-1772, medium; host or cells: differentiated C2C12", "T1 sequence (Q91VH1 1-375)": "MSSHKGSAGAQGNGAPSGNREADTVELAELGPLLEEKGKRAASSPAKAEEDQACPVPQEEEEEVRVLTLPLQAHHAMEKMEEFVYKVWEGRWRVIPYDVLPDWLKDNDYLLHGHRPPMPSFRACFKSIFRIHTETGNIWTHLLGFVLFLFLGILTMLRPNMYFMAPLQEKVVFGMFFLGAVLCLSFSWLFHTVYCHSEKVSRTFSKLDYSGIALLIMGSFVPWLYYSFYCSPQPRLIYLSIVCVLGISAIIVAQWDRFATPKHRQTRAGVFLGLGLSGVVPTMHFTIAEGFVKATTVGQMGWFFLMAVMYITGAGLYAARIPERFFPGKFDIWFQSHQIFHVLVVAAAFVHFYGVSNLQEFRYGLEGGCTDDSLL", "test": "Measurement of AMPK phosphorylation ability (Assay 1), differentiated C2C12 cells, Western blotting", "format": "cell-based", "details": "10 μM, 10 minutes", "in_short": "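Differentiated mouse C2C12 myotubes (2.5% horse serum) starved and then treated with compound at 10 μM for 10 min. Phospho-AMPKα (Thr172) and total AMPKα measured by Western blot with ECL, band densitometry.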"}, "rhodopsin receptor": {"system": "rhodopsin receptor", "test": "Surface plasmon resonance, rhodopsin receptor control", "format": "binding", "details": "SPR"}, "AMPK": {"system": "AMPK", "test": "AMPK phosphorylation in vivo in skeletal muscle and liver", "design": "species or system mice", "details": "intravenous 50 mg/kg", "experimental": "Immunoblotting was carried out according to the method described previously by which the livers, muscles or white adipose tissues were freeze-clamped in liquid nitrogen in situ^b,d,e.\nThe procedures used for immunoprecipitation and immunoblotting have been described previously^a,f. Muscle, liver or cell lysates were incubated with 60 μl of protein G sepharose linked to antibodies against phosphotyrosine (4G10) (Merck Millipore). Beads were then washed, the resultant was boiled for 5 min in a sample buffer and the immunoprecipitates were subjected to immunoblotting. Phosphorylation and/or the protein levels of AMPKα (Cell signaling #2535, #2532), IRβ (Upstate 05-321, Santa Cruz sc-711), AKT (Cell signaling #9271, #9272), GSK3 (Cell signaling #5558, #9315) and tubulin (NeoMarkers RB-9281-PO) were determined as described^a,g,h."}, "[1]": {"system": "white adipose tissue (WAT)", "test": "White adipose tissue (WAT): inflammation and macrophage markers in mice fed a HF diet", "format": "in vivo", "experimental": "Real-time PCR was carried out according to the method described previously^a,b,c. Total RNA was prepared from cells or tissues with Trizol (Invitrogen) according to the manufacturer's instructions. We used a real-time PCR method to quantify the mRNAs^19, with slight modifications.\nSkeletal muscle homogenates were extracted, and tissue triglyceride content was determined as described previously^a-c, with some modifications. To investigate whether oxidative stress was increased, we measured lipid peroxidation, a marker of oxidative injury, as represented by plasma thiobarbituric acid reactive substance (TBARS) as described previously^4. Briefly, tissue samples were homogenized in a buffer solution containing 50 mM Tris-HCl (pH 7.4) and 1.15% KCl, and then centrifuged. The supernatant was used for the assay. The levels of lipid peroxidation in tissue homogenate and plasma were measured in terms of the amount of TBARS using the LPO test (Wako Pure Chemical Industries)."}, "[2]": {"details": "Adipor1/r2 double-knockout mice"}},
  "data": [
    {"smiles": "O=C(COc1ccc(C(=O)c2ccccc2)cc1)NC1CCN(Cc2ccccc2)CC1", "note": "[Compound 73, 2-(4-benzoyl-phenoxy)-N-(1-benzylpiperidin-4-yl)acetamide]", "values": [
      {"measurement": "pAMPK/AMPK (%)", "setting": "AdipoR1", "value": 84.33, "unit": "%"},
      {"measurement": "reaction with rhodopsin receptor (control)", "setting": "rhodopsin receptor", "value": "does not react a rhodopsin receptor at all"},
      {"measurement": "phosphorylation of AMPK in skeletal muscle and liver", "setting": "AMPK; [2]", "value": "but not in Adipor1/r2 double-knockout mice"},
      {"measurement": "phosphorylation of AMPK in skeletal muscle and liver", "setting": "AMPK; wild-type (WT) mice", "value": "significantly induced phosphorylation of AMPK"},
      {"measurement": "changes of macrophage markers in the WAT", "setting": "[1]; [2]", "value": "these changes were not observed"},
      {"measurement": "expression levels of genes encoding pro-inflammatory cytokines in the WAT", "setting": "[1]; Adipor1/r2 double-knockout mice fed with a HF diet", "value": "such effect was not observed"},
      {"measurement": "expression levels of genes encoding pro-inflammatory cytokines (Tnf, Il6, Ccl2) in the WAT", "setting": "[1]; WT mice fed with a HF diet", "value": "reduced the expression levels"},
      {"measurement": "levels of macrophage markers such as TBARS and F4/80 (Emr1), M1 marker CD11c (Itgax) in the WAT", "setting": "[1]; WT mice fed with a HF diet", "value": "reduced the levels"},
      {"measurement": "levels of markers for alternatively activated M2 macrophages such as CD206 (Mrc1) in the WAT", "setting": "[1]; WT mice fed with a HF diet", "value": "not affect the levels"}
    ]}
  ]
}
